Reference: patent US20050215551A1, “1-[2H-1-benzopyran-2-one-8-yl]- piperazine derivatives for the treatment of movement disorders” (SOLVAY PHARMACEUTICALS B.V., priority 2004, published 2005)
Read-outs that look alike come from different tables or passages of the source.

Assays:
Adenosine-A3 = Adenosine-A3 (Homo sapiens, UniProt P0DMS8); test: Receptor binding Adenosine-A3; details: radioligand [3H]-AB-MECA, read-out: Ki(nM) Compound 1
Experimental: (§1) Receptor binding data were obtained by CEREP (128, rue Danton, 92500 Rueil-Malmaison, France) or at Solvay Pharmaceuticals B.V., using well documented standard procedures. Affinity for 5-HT1A receptors for instance, was determined by testing the ability of the compounds of the invention to displace [^3H]-2-(di-n-propylamino)-8-hydroxytetralin ([^3H]-8-OH-DPAT) from its specific binding sites in rat frontal cortex homogenates. This test is based on the method described by Gozlan et al. (Nature, 305, (1983), pages 140-142).
(§2) The binding data collected in the table below were either obtained by CEREP (128, rue Danton, 92500 Rueil-Malmaison, France) or at Solvay Pharmaceuticals B.V., using well documented standard procedures.

CCKA = CCKA (Homo sapiens, UniProt P32238); test: Receptor binding CCKA; details: radioligand [3H]-devazepide, read-out: Ki(nM) Compound 1
Chain of CCKA (P32238 whole entry): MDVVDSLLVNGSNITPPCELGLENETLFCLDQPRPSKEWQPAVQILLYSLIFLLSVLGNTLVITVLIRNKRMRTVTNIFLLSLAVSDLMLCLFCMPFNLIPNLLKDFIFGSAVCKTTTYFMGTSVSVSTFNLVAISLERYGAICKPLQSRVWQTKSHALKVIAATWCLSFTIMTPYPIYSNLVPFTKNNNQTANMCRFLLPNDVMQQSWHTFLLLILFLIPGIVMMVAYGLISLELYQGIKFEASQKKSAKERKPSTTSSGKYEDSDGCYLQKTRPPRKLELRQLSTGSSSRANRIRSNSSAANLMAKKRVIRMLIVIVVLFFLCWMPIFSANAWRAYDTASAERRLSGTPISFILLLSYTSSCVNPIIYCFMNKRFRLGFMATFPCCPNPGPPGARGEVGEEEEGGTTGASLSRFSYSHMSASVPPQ
Experimental: as §1, §2

β2-adrenergic = β2-adrenergic (Homo sapiens, UniProt P07550); test: Receptor binding β2-adrenergic; details: radioligand [3H]-CGP 12177, read-out: Ki(nM) Compound 1
Chain of β2-adrenergic (P07550 whole entry): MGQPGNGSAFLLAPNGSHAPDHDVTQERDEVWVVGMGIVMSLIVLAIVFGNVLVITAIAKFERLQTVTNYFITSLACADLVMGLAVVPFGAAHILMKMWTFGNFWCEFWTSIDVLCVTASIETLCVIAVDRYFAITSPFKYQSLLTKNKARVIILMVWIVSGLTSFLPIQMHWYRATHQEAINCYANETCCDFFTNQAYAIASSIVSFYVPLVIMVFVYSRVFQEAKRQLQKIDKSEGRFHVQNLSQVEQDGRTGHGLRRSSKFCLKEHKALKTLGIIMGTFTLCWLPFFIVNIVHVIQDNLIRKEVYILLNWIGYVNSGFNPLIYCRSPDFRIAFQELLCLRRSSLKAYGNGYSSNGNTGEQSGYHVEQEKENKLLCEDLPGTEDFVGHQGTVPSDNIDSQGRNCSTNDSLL
Experimental: as §1, §2

Prostaglandin-I2 = Prostaglandin-I2 (Homo sapiens, UniProt P43119); test: Receptor binding Prostaglandin-I2; details: radioligand [3H]-iloprost, read-out: Ki(nM) Compound 1
Chain of Prostaglandin-I2 (P43119 whole entry): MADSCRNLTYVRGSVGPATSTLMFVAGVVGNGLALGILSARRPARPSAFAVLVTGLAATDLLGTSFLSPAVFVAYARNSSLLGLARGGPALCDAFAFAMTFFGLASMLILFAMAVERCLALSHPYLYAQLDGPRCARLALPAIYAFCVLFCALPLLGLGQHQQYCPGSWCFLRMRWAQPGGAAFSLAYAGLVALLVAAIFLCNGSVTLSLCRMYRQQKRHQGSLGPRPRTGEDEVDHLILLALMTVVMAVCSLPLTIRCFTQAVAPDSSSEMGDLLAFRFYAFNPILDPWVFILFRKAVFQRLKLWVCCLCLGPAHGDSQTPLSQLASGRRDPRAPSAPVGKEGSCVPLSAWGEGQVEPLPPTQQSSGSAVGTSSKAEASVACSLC
Experimental: as §1, §2

Histamine-H2 = Histamine-H2 (Homo sapiens, UniProt P25021); test: Receptor binding Histamine-H2; details: radioligand [125I]-APT, read-out: Ki(nM) Compound 1
Chain of Histamine-H2 (P25021 whole entry): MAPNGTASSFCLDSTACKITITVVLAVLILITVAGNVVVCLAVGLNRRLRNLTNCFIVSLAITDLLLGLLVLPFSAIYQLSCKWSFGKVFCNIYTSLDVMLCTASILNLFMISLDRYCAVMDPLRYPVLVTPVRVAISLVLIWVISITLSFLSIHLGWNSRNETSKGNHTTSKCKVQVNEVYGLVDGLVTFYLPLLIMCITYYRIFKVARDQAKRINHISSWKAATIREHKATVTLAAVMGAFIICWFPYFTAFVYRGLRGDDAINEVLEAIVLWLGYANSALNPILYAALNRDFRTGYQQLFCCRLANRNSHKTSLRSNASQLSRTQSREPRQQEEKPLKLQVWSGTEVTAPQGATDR
Experimental: as §1, §2

Endothelin-ETB = Endothelin-ETB (Homo sapiens, UniProt P24530); test: Receptor binding Endothelin-ETB; details: radioligand [125I]-endothelin-1, read-out: Ki(nM) Compound 1
Chain of Endothelin-ETB (P24530 27-442): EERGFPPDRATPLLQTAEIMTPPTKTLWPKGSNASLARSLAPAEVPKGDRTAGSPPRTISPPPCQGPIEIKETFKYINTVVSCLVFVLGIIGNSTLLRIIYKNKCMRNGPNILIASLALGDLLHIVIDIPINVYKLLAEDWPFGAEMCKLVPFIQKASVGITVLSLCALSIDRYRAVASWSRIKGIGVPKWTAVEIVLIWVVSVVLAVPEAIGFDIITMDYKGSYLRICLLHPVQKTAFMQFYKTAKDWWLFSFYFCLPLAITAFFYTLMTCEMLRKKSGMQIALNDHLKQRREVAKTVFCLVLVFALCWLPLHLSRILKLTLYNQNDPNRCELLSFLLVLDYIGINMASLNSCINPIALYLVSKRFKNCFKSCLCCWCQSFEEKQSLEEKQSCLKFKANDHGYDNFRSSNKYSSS
Experimental: as §1, §2

DBA/2 mice = test: Anticonvulsant activity: audiogenic seizures in DBA/2 mice; format: in vivo; details: for ED50: Mus musculus; for behavioural changes: all dosages tested
Description: DBA/2 mice weighing 6-12 g (22-26 days old; either sex, Harlan Italy Correzzana, Milano, Italy) are housed in groups of 8-10 under a 12-h light/dark cycle (lights on at 7:00 a.m.) with food and water available ad libitum. The experimental protocol is approved by University of Catanzaro Ethical Committee. All procedures are in compliance with the Nationals Institutes of Health Guide for Care and Use of Laboratory Animals (Publication No. 85-23, revised 1985) and European Communities Council Directive of 24 Nov. 1986 (86/609 EEC).
The experiments are performed according to the method previously described by De Sarro et al. (1984), Eur. J. Pharmacol., 104, 55-60. Compounds of the invention or vehicle (controls) are given intraperitoneally (i.p.) and orally (p.o.) as freshly sonicated solutions in methylcellulose 1%. For the […]; pretreatment time at 30 and 60 min., For oral treatment, all animals are pretreated either at 30 or 60 min using the compounds of the invention at doses of 0.1, 0.3, 3, 6 and 10 mg/kg p.o. At least 10 mice per dose are used. After pretreatment time, each mouse is placed under a hemispheric perspex dome (58 cm in diameter) and 1 min is allowed for habituation and assessment of locomotor activity. Animals are challenged with a 12-16 kHz sinusoidal tone at 109 dB. Seizure response is assessed by two independent observers. The sound evoked behaviour is coded using the following scale: 0=no response, 1=wild running, 2=clonus, 3=tonic flexor and/or extensor; 4=respiratory arrest, on the basis of the concordant opinion of the observers. […] The maximum response is recorded for each animal. Rectal temperature is recorded immediately prior to auditory testing using an Elektrolaboratoriet thermometer type T.E.3. Behavioral changes are observed during the period between drug administration and auditory testing. In these experiments separate vehicle-treated and drug-treated groups are used at each pretreatment time (15 min-60 min). Percentage of mice showing wild running, clonic or tonic phase and the duration of anticonvulsant activity are compared to control group and statistically analyzed.
Statistical comparison between groups of control and drug-treated DBA/2 mice is made using Fisher's exact probability test (incidence of the seizure phases). The percentage incidence of each phase of the audiogenic seizure is determined for each drug. These values are plotted against the corresponding doses by a computer construction of the dose-effect curves for calculation of ED50 (with 95% confidence limits). The ED50 values for each compound are calculated using a computer program of the method of Litchfield and Wilcoxon (1949). At least 32 animals are used to calculate each ED50 value.
For systemic injections and oral administrations, all compounds are given intraperitoneally (0.1 ml/10 g of body weight of the mouse) as a freshly prepared solution in methylcellulose 1%. In order to avoid the light sensitivity, weighing and handling are carried out under sodium vapor lamps and the substances are protected from light during the experiments.

Chain of Adenosine-A3 (P0DMS8 whole entry): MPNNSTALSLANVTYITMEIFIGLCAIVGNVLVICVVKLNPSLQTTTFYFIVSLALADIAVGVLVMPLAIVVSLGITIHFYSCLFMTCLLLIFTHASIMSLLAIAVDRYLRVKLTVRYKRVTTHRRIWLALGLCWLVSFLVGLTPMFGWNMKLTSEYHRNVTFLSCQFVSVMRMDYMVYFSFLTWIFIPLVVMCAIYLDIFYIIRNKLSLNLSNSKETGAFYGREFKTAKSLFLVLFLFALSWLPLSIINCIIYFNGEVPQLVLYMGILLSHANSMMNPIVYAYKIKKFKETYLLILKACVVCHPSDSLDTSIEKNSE

Nc1cc2cccc(N3CCNCC3)c2oc1=O [Compound 1, 3-amino-8-(1-piperazinyl)-2H-1-benzopyran-2-one]
Ki (Adenosine-A3): > 1000 nM
Ki (CCKA): > 1000 nM
Ki (β2-adrenergic): 40 nM
Ki (Prostaglandin-I2): > 1000 nM
Ki (Histamine-H2): > 1000 nM
Ki (Endothelin-ETB): > 1000 nM
ED50 (DBA/2 mice; ip, 0.5 h, read-out: ED50 Tonic extension, i.p. administration, 30 minutes after drug administration): 0.66 mg/kg
ED50 (DBA/2 mice; ip, 0.5 h, i.p. administration, 30 minutes after drug administration, read-out: ED50 Clonic seizures): 3.7 mg/kg
ED50 (DBA/2 mice; ip, 0.5 h, i.p. administration, 30 minutes after drug administration, read-out: ED50 Wild running): 39 mg/kg
ED50 (DBA/2 mice; ip, 1 h, i.p. administration, 60 minutes after drug administration, read-out: ED50 Clonic seizures): 1.9 mg/kg
ED50 (DBA/2 mice; ip, 1 h, i.p. administration, 60 minutes after drug administration, read-out: ED50 Tonic extension): 0.26 mg/kg
ED50 (DBA/2 mice; ip, 1 h, i.p. administration, 60 minutes after drug administration, read-out: ED50 Wild running): 20.5 mg/kg
ED50 (DBA/2 mice; po, 0.5 h, p.o. administration, 30 minutes after drug administration, read-out: ED50 Clonic seizures): 4.91 mg/kg
ED50 (DBA/2 mice; po, 0.5 h, read-out: ED50 Tonic extension, p.o. administration, 30 minutes after drug administration): 1.19 mg/kg
ED50 (DBA/2 mice; po, 1 h, p.o. administration, 60 minutes after drug administration, read-out: ED50 Clonic seizures): 1.34 mg/kg
ED50 (DBA/2 mice; po, 1 h, p.o. administration, 60 minutes after drug administration, read-out: ED50 Tonic extension): 0.27 mg/kg
behavioural changes (DBA/2 mice; i.p. administration): At none of the dosages tested
behavioural changes (DBA/2 mice; oral administration): At none of the dosages tested
